For one experiment, the system named is wheat (Triticum spp.). Description: Test Example 1: foliar treatment, growth inhibition rate, wheat. Particulars: 31 g/ha active ingredient, visually observed 17th to 23rd day after application; for pest or weed control at 31 g/ha: Triticum. Type of experiment: in vivo. The method in brief:
(§1)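 Post-emergence foliar spray, pot test; WP/EC formulation in water at 500 L/ha, + 0.1 vol % spreader; leaf stage at treatment: corn 2.0–3.5, green foxtail 1.0–3.0, rice 1.0–2.5, wheat 1.7–3.4; visual % inhibition at 17–23 DAT (0 = untreated, 100 = dead).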

The subject of the next experiment is corn. Nature of the experiment: Test Example 2: soil application on the day after sowing, growth inhibition rate, corn. It is filed as in vivo, Zea mays L. Particulars: 250 g/ha active ingredient, observed on 19th to 24th day; for inhibition at 250 g/ha: Zea mays. The method in brief: (§2)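 Seeds were sown in upland field soil in pots, and on the following day compounds formulated as wettable powders or emulsifiable concentrates were diluted in water (500 liter per hectare) and sprayed onto the soil at prescribed active-ingredient doses. Growth was scored visually 19–24 days later, 0 = untreated to 100% = complete kill.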

Experiment [1] deals with greenfoxtail (Setaria viridis L.). Description: Test Example 1: foliar treatment, growth inhibition rate, greenfoxtail. It is filed as in vivo. Particulars: 31 g/ha active ingredient, visually observed 17th to 23rd day after application; for pest or weed control at 31 g/ha: Setaria viridis. The method in brief: as §1
In another experiment the test system is velvetleaf. Description: Test Example 2: soil application on the day after sowing, growth inhibition rate, velvetleaf. It is filed as in vivo, Abutilon theophrasti MEDIC. Particulars: 250 g/ha active ingredient, observed on 19th to 24th day; for inhibition at 250 g/ha: Abutilon theophrasti. The method in brief:
as §2

Another experiment relates to rice (Oryza sativa L.). Nature of the experiment: Test Example 1: foliar treatment, growth inhibition rate, rice. It is filed as in vivo. Particulars: 31 g/ha active ingredient, visually observed 17th to 23rd day after application; for pest or weed control at 31 g/ha: Oryza sativa. The method in brief:
as §1

In the next experiment the test system is redroot pigweed. Description: Test Example 2: soil application on the day after sowing, growth inhibition rate, redroot pigweed. Type of experiment: in vivo, Amaranthus retroflexus L. Particulars: 250 g/ha active ingredient, observed on 19th to 24th day; for inhibition at 250 g/ha: Amaranthus retroflexus. The method in brief:
as §2

The subject of another experiment is barnyardgrass. Description: Test Example 2: soil application on the day after sowing, growth inhibition rate, barnyardgrass. Type of experiment: in vivo, Echinochloa crus-galli L. Particulars: 250 g/ha active ingredient, observed on 19th to 24th day; for inhibition at 250 g/ha: Echinochloa crus-galli. From the text:
(§3) Upland field soil was put into a 1/170,000 hectare pot, and seeds of various plants (barnyardgrass, crabgrass, greenfoxtail, redroot pigweed, prickly sida, velvetleaf, rice, wheat, corn and soybean) were sown. On the day after sowing, wettable powders or emulsifiable concentrates of the compounds of the present invention prepared in accordance with a conventional preparation method, were weighed so that the active ingredients became the prescribed amounts, and diluted with water in an amount corresponding to 500 liter per 1 hectare, followed by soil application with a small sprayer. On the 19th to 24th day after the application, the state of growth of the respective plants was visually observed, and the herbicidal effect was evaluated in accordance with a growth inhibition rate (%) of from 0 (equivalent to the non-treated area) to 100% (complete kill).

A further experiment has as its system greenfoxtail. Description: Test Example 2: soil application on the day after sowing, growth inhibition rate, greenfoxtail. Type of experiment: in vivo, Setaria viridis L. Particulars: 250 g/ha active ingredient, observed on 19th to 24th day; for inhibition at 250 g/ha: Setaria viridis.
Excerpt: as §3

Experiment [2] relates to barnyardgrass (Echinochloa crus-galli L.). Nature of the experiment: Test Example 1: foliar treatment, growth inhibition rate, barnyardgrass. It is filed as in vivo. Particulars: 31 g/ha active ingredient, visually observed 17th to 23rd day after application; for pest or weed control at 31 g/ha: Echinochloa crus-galli. The method in brief:
(§4)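 Visual scoring of growth inhibition, 0% (untreated) to 100% (complete kill), on days 17–23 following post-emergence spray of formulated compound in water (500 L/ha, 0.1 vol % spreader); plants treated at set leaf stages, e.g. corn 2.0–3.5, wheat 1.7–3.4.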

The next experiment concerns wheat. Nature of the experiment: Test Example 2: soil application on the day after sowing, growth inhibition rate, wheat. Type of experiment: in vivo, Triticum spp. Particulars: 250 g/ha active ingredient, observed on 19th to 24th day; for inhibition at 250 g/ha: Triticum aestivum.
Excerpt: as §3

The subject of the next experiment is corn (Zea mays L.). Description: Test Example 1: foliar treatment, growth inhibition rate, corn. It is filed as in vivo. Particulars: 31 g/ha active ingredient, visually observed 17th to 23rd day after application; for pest or weed control at 31 g/ha: Zea mays. The method in brief:
as §1

For experiment [3], the system named is velvetleaf (Abutilon theophrasti MEDIC.). Description: Test Example 1: foliar treatment, growth inhibition rate, velvetleaf. It is filed as in vivo. Particulars: 31 g/ha active ingredient, visually observed 17th to 23rd day after application; for pest or weed control at 31 g/ha: Abutilon theophrasti. The method in brief:
as §4

The next experiment concerns rice. Nature of the experiment: Test Example 2: soil application on the day after sowing, growth inhibition rate, rice. It is filed as in vivo, Oryza sativa L. Particulars: 250 g/ha active ingredient, observed on 19th to 24th day; for inhibition at 250 g/ha: Oryza sativa.
Excerpt: as §3

The test system of a further experiment is crabgrass. Description: Test Example 2: soil application on the day after sowing, growth inhibition rate, crabgrass. Type of experiment: in vivo, Digitaria sanguinalis L. Particulars: 250 g/ha active ingredient, observed on 19th to 24th day; for inhibition at 250 g/ha: Digitaria sanguinalis. The method in brief: as §2
The test system of experiment [4] is crabgrass (Digitaria sanguinalis L.). Description: Test Example 1: foliar treatment, growth inhibition rate, crabgrass. It is filed as in vivo. Particulars: 31 g/ha active ingredient, visually observed 17th to 23rd day after application; for pest or weed control at 31 g/ha: Digitaria sanguinalis. The method in brief:
as §4

Experiment [5] concerns redroot pigweed (Amaranthus retroflexus L.). Description: Test Example 1: foliar treatment, growth inhibition rate, redroot pigweed. It is filed as in vivo. Particulars: 31 g/ha active ingredient, visually observed 17th to 23rd day after application. The method in brief: as §4
Experiment [6] relates to prickly sida (Sida spinosa L.). Description: Test Example 1: foliar treatment, growth inhibition rate, prickly sida. Type of experiment: in vivo. Particulars: 31 g/ha active ingredient, visually observed 17th to 23rd day after application. The method in brief:
as §4

The test system of the next experiment is prickly sida. Nature of the experiment: Test Example 2: soil application on the day after sowing, growth inhibition rate, prickly sida. Type of experiment: in vivo, Sida spinosa L. Particulars: 250 g/ha active ingredient, observed on 19th to 24th day; for inhibition at 250 g/ha: Sida spinosa.
Excerpt: as §3

Experiment [7] has as its system soybean (Glycine max Merr.). Nature of the experiment: Test Example 1: foliar treatment, growth inhibition rate, soybean. It is filed as in vivo. Particulars: 31 g/ha active ingredient, visually observed 17th to 23rd day after application. The method in brief:
as §4

A further experiment relates to soybean. Nature of the experiment: Test Example 2: soil application on the day after sowing, growth inhibition rate, soybean. It is filed as in vivo, Glycine max Merr. Particulars: 250 g/ha active ingredient, observed on 19th to 24th day.
Excerpt: as §3

Results on 5 compounds are retold here after patent US8030498B2, “Benzoylpyrazole compounds and herbicides containing them” (Ishihara Sangyo Kaisha, Ltd., priority 2005, dated 2011).

In general, pest or weed control refers to the degree to which the test organism was suppressed or injured, in per cent. A higher pest or weed control goes with strong suppression. Usually inhibition stands for the change of the read-out against control, counted positive when it falls. Low readings indicate a response near the control, high ones a response far below the control. On to `CCSC(=O)Oc1c(C(=O)c2ccc(S(C)(=O)=O)c(C(=O)OC)c2C)cnn1CC` [Compound No. 2, 1-ethyl-5-(ethylthio)carbonyloxypyrazol-4-yl 3-(methoxycarbonyl)-2-methyl-4-(methylsulfonyl)phenyl ketone], for which the pest or weed control at 31 g/ha in the experiment with wheat (Triticum spp.) came to 30%; in experiment [1] it was 100%; in the experiment on rice (Oryza sativa L.) it was 95%; in experiment [2], 95%; with corn (Zea mays L.) it was 10%; in [3], 95%. In experiment [4], this compound returned a pest or weed control at 31 g/ha of 90%. Further, the inhibition at 250 g/ha with corn came out at 0%; with velvetleaf, 60%; in the experiment on redroot pigweed it was 100%; with barnyardgrass, 100%; in the experiment on greenfoxtail, 98%; in the experiment on wheat, 40%. In addition, the inhibition at 250 g/ha in the experiment with rice was 100%; in the experiment on crabgrass, 100%; with prickly sida, 95%. In addition, in experiment [5], the “Growth inhibition rate (%) redroot pigweed” value is listed as 95%. For the same compound, the “Growth inhibition rate (%) Prickly sida” value in [6] came to 95%.

Take `CCSC(=O)Oc1c(C(=O)c2ccc(S(C)(=O)=O)c(OCCOC)c2C)cnn1CC` [Compound No. 16, 5-(ethylthio)carbonyloxy-1-ethylpyrazol-4-yl 3-(2-methoxyethoxy)-2-methyl-4-(methylsulfonyl)phenyl ketone]: the pest or weed control at 31 g/ha in the experiment with wheat (Triticum spp.) came to 0%; in experiment [1], 100%; in the experiment with rice (Oryza sativa L.) it was 90%; in experiment [2] it was 100%; with corn (Zea mays L.), 0%; in [3], 100%. In experiment [4], this compound had a pest or weed control at 31 g/ha of 100%. In addition, the inhibition at 250 g/ha amounted to 0% in the experiment on corn; 0% in the experiment on velvetleaf; 100% in the experiment with redroot pigweed; 100% in the experiment on barnyardgrass; 98% with greenfoxtail; 0% in the experiment with wheat. Moreover, the figures for the inhibition at 250 g/ha with rice, in the experiment with crabgrass and in the experiment with prickly sida were 98%, 100% and 10%, respectively. The “Growth inhibition rate (%) Soybean” value in [7] was 95%. Besides, in [6], the “Growth inhibition rate (%) Prickly sida” value was found to be 40%.

For the compound `CCSC(=O)Oc1c(C(=O)c2ccc(S(C)(=O)=O)c(OCC(OC)OC)c2C)cnn1C` [Compound No. 209, 5-(ethylthio)carbonyloxy-1-methylpyrazol-4-yl 3-(2,2-dimethoxyethoxy)-2-methyl-4-(methylsulfonyl)phenyl ketone], the pest or weed control at 31 g/ha was found to be 0% in the experiment on wheat (Triticum spp.); 98% in experiment [1]; 95% with rice (Oryza sativa L.); 100% in experiment [2]; 0% in the experiment on corn (Zea mays L.); 100% in [3]. In experiment [4], this compound showed a pest or weed control at 31 g/ha of 95%. Also, the inhibition at 250 g/ha in the experiment on corn turned out to be 0%; in the experiment with velvetleaf, 50%; in the experiment on redroot pigweed, 95%; in the experiment on barnyardgrass, 95%; in the experiment with greenfoxtail, 100%; with wheat, 20%. The values for the inhibition at 250 g/ha in the experiment on rice, with crabgrass and in the experiment with prickly sida were 90%, 95% and 30%, respectively. Also, the “Growth inhibition rate (%) Soybean” value in experiment [7] was 100%. Besides, the “Growth inhibition rate (%) redroot pigweed” value in experiment [5] turned out to be 98%. Further, the “Growth inhibition rate (%) Prickly sida” value in [6] is reported as 90%.

On to `CCSC(=O)Oc1c(C(=O)c2ccc(S(C)(=O)=O)c(C(=O)SC)c2Cl)cnn1C` [compound 31], for which the “Growth inhibition rate (%) Wheat” value in the experiment with wheat (Triticum spp.) and in the experiment with wheat was 0% in each case. The results for the “Growth inhibition rate (%) Corn” value in the experiment with corn and in the experiment with corn (Zea mays L.) were 0% and 60%, respectively. In addition, the “Growth inhibition rate (%) Greenfoxtail” value in [1] was 80%; in the experiment on greenfoxtail, 70%. The “Growth inhibition rate (%) Velvetleaf” value (in the experiment with velvetleaf; in experiment [3]) was 60% in each case. The “Growth inhibition rate (%) Rice” value in the experiment with rice (Oryza sativa L.) and in the experiment on rice was 60% in each case. The “Growth inhibition rate (%) redroot pigweed” value amounted to 60% in the experiment on redroot pigweed and 70% in experiment [5]. The figures for the “Growth inhibition rate (%) Barnyardgrass” value (in the experiment with barnyardgrass; in experiment [2]) were 60% and 100%, respectively. The “Growth inhibition rate (%) Soybean” value in [7] was 50%. The figures for the “Growth inhibition rate (%) Crabgrass” value (in the experiment on crabgrass; in experiment [4]) were 65% and 30%, respectively. The “Growth inhibition rate (%) Prickly sida” value (in experiment [6]; in the experiment with prickly sida) was 70% in each case.

In the case of `CCSC(=O)Oc1c(C(=O)c2ccc(S(C)(=O)=O)c(OC(C)COC)c2C)cnn1C` (stereo not drawn) [compound 236], the results for the “Growth inhibition rate (%) Soybean” value (with soybean; in experiment [7]) were 0% and 95%, respectively. Further, the “Growth inhibition rate (%) Wheat” value in the experiment on wheat (Triticum spp.) amounted to 0%. Moreover, the “Growth inhibition rate (%) Corn” value with corn and in the experiment on corn (Zea mays L.) was 0% throughout. Also, the entries for the “Growth inhibition rate (%) Greenfoxtail” value (in [1]; in the experiment on greenfoxtail) were 40% and 10%, respectively. The results for the “Growth inhibition rate (%) Velvetleaf” value (in the experiment on velvetleaf; in experiment [3]) were 0% and 70%, respectively. The results for the “Growth inhibition rate (%) Rice” value with rice (Oryza sativa L.) and in the experiment with rice were 80% and 70%, respectively. Further, the entries for the “Growth inhibition rate (%) redroot pigweed” value (in the experiment on redroot pigweed; in experiment [5]) were 100% and 90%, respectively. The “Growth inhibition rate (%) Barnyardgrass” value in the experiment on barnyardgrass is on record as 98%; in experiment [2], 60%. The “Growth inhibition rate (%) Crabgrass” value with crabgrass came out at 95%; in experiment [4], 50%. The “Growth inhibition rate (%) Prickly sida” value in experiment [6] is recorded as 40%; in the experiment with prickly sida, 30%.
